Here are results for 5 compounds from patent US6180385A (priority 1996, dated 2001).

One experiment concerns L proteinase. The following applies: cited from earlier work.
For experiment [1], the target named is T1, Lb proteinase (Foot-and-mouth disease virus serotype O, UniProt P03305). The class given is biochemical, FMDV.
The target in experiment [2] is T1, Lb proteinase.

T1 sequence (P03305 29-201 limits assumed): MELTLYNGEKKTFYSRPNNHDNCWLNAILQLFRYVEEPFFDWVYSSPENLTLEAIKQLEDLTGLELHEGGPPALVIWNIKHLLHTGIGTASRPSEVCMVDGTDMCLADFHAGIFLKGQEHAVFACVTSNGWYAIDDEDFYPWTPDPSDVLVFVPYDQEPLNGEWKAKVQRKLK

As to `CC(C)CC(NC(=O)C1OC1C(=O)O)C(=O)NCCCCN=C(N)N` (stereo not shown) [Peptide E64, E64], the “effect on the L proteinase” value in the experiment with L proteinase was “inhibition”.
Take `CCCCCCCCCCCCOS(=O)(=O)O` [SDS]: at Lb proteinase [1], the “cleavage of peptide LVP4-1 by Lb proteinase in the presence of inhibitor” value is recorded as “No cleavage”; the “inhibition of cleavage of peptides P89, p220-4 and p220-6 by Lb proteinase” value is listed as “complete inhibition”.
Regarding “Ac-T*R*P I I T T A G P S D M Y V H-NH2 [Peptide P89]”, at Lb proteinase [2], the “cleavage of peptide in the absence of SDS (controls)” value (from here on “cleavage of peptide … (controls)”) is “efficient cleavage” and the “peptide cleaved by Lb (qualitative)” value is given as “cleaved”.
In the case of “G R T T L S T R*G P P R G G P G [p220-4]”, at Lb proteinase [2], the “cleavage of peptide … (controls)” value is “efficient cleavage” and the “peptide cleaved by Lb (qualitative)” value is “cleaved”.
Regarding “T P S F A N L G*R T T L S T R G [p220-6]”, on Lb proteinase [2], the “FMDV Lb cleavage site on the peptide (* indicates cleavage site)” value is “G*R”, the “cleavage of peptide … (controls)” value is reported as “efficient cleavage” and the “peptide cleaved by Lb (qualitative)” value was “cleaved”.
